Measurements reported in patent US20240166681A1, “3'3' CYCLIC DINUCLEOTIDES CONTAINING ISONUCLEOTIDIC UNITS” (INSTITUTE OF ORGANIC CHEMISTRY AND BIOCHEMISTRY AS CR, V. …, priority 2021, published 2024).

What follows are molecules tested against WT STING (Homo sapiens, UniProt Q86WV6, H232R) (assay: Differential scanning fluorimetry with WT STING). Details: thermal shift, truncated human WT STING 0.1 mg/ml, 150 μM CDN.
Type: binding
Set-up: truncated human WT STING or AQ STING (amino acid residues 140-343); 8xHis (N, cleaved yes); SUMO (N, cleaved yes); made in house; host or cells: E. coli Rosetta-gami B (DE3)
Source text: Both WT and AQ human STING (G230A-R293Q) cDNA were amplified by the use of PCR (Phusion® High-Fidelity DNA Polymerase, cat. #M0530S, NEB, Ipswich, USA) using oligonucleotides hSTING140-BamH-For ([…]) (SEQ ID NO:5) and hSTING379-Not-Rev3 ([…]) (SEQ ID NO:6) from pUNO1-hSTING-WT (cat. #puno1-hstingwt, InvivoGen, San Diego, USA) and pUNO1-hSTING-HAQ plasmids (punol-hsting-haq, InvivoGen, San Diego, USA). Purified PCR products were cleaved with restriction enzymes BamHI (cat. #R0136S, NEB, Ipswich, USA) and Notl (cat. #R0189S, NEB, Ipswich, USA) and cloned into the pSUMO vector linearized with the identical enzymes. Plasmid pSUMO was created by introducing 8-His-SUMO sequence between Ndel and BamHI sites of pHis-parallel2 plasmid (Clontech, Moutain View, USA). pSUMO-STING WT or pSUMO-STING AQ plasmids thus encoded truncated human WT STING or AQ STING (amino acid residues 140-343) with N-terminal 8xHis and SUMO tag.
The recombinant WT STING and AQ STING proteins were overexpressed in Rosetta-gami B (DE3) competent cells (cat. #71136-3, Merck Millipore, Billerica, USA). Bacterial pellets were re-suspended in ice-cold lysis buffer containing 50 mmol·l^−1 TrisCl (cat. #T1503, Sigma Aldrich, Czech Republic) pH 8.0, 300 mmol·l^−1 NaCl, 3 mmol·l^−1 β-mercaptoethanol (cat. #M6250, Sigma Aldrich, Czech Republic), 10% glycerol (cat. #G5516, Sigma Aldrich, Czech Republic) and 20 mmol·l^−1 imidazole (cat. #15513, Sigma Aldrich, Czech Republic) using Dounce homogenizer. DNase I (cat. #D5025, Sigma Aldrich, Czech Republic) and RNase A (cat. #R6513, Sigma Aldrich, Czech Republic) were added (final concentration 50 μg/ml) together with MgCl2 (final concentration 5 mmol·l^−1) to the homogenate and bacteria were lysed using French Press G-M™ High-Pressure Cell Press Homogenizer (1500 psi, 3 cycles). Lysate was spun 30,000 g for 20 minutes and supernatant was gently stirred with Ni-NTA resin (cat. #745400.25 Macherey-Nagel, Duren, Germany) for 30 minutes. The resin was poured into a chromatography column, washed with 50 ml buffer A (50 mmol·l^−1 TrisCl (pH 8.0), 800 mmol·l^−1 NaCl, 3 mmol·l^−1 (3-mercaptol; 10% glycerol; 20 mmol·l^−1 imidazole) and 8-His-SUMO tagged STING proteins were eluted with 15 ml buffer A containing 300 mmol·l^−1 imidazole. The eluted proteins were cleaved with recombinant SUMO protease (80 μg/ml of protein solution, cat. #12588018, ThermoFisher, Waltham, USA). The proteins were further purified by size exclusion chromatography using HiLoad 16/60 Superdex 75 (cat. #28989333, GE Healthcare Bio-Sciences, Pittsburgh, USA) in 50 mmol·l^−1 Tris Cl buffer pH 7.4 containing 150 mmol·l^−1 NaCl, and 10% glycerol. Proteins were concentrated with Amicon® Ultra-15 10 K device (cat. #UFC901008, Merck Millipore, Billerica, USA) and flash frozen in liquid N2.
WT and AQ allelic forms of STING protein were diluted to the final concentration 0.1 mg/ml in 100 mmol·l^−1 TrisCl buffer pH 7.4 containing, 150 mmol·l^−1 NaCl, 1:500 SYPRO Orange (cat. #S6650, ThermoFisher, Waltham, USA) and 150 μM CDN or water. 20 μL solutions of the reaction mixtures were pipetted in triplicates into 96 well optical reaction plates and thermal denaturation of samples were performed on real time PCR cycler (LightCycler® 480 Instrument II—Roche, Basel, Switzerland). The first derivative of the thermal denaturation curves was performed to calculate denaturing temperatures of STING—CDN complexes and STING apoproteins. The thermal shift for each CDN was calculated by subtracting the average denaturing temperature of STING apoprotein from the average denaturing temperature of STING CDN complex.

WT STING, sequence (Q86WV6 140-343 H232R): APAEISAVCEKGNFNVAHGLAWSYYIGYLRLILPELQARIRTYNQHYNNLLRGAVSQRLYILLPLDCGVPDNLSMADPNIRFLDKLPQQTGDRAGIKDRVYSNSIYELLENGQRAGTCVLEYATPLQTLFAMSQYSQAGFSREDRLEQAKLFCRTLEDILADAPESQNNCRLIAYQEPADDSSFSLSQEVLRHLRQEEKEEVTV

SMILES	DSF ΔTm WT STING [°C]
Nc1ncnc2c1ncn2[C@@H]1CO[C@@H]2COP(=O)(S)O[C@H]3[C@@H](F)[C@H](n4cnc5c(N)ncnc54)O[C@@H]3COP(=O)(S)O[C@@H]12 (stereo partly drawn) [Compound 55, (1S,6R,8R,9R,10R,15R,18R)-8,18-bis(6-amino-9H-purin-9-yl)-9-fluoro-3,12-disulfanyl-2,4,7,11,13,16-hexaoxa-3λ^5,12λ^5-diphosphatricyclo[13.3.0.0^6,10]octadecane-3,12-dione]	11.0

Same assay, conditions: thermal shift, truncated human WT STING 0.1 mg/ml, 150 μM CDN; read-out: DSF ΔTm WT STING

SMILES	ΔTm at 150 µM [°C]
Nc1nc2c(ncn2[C@@H]2O[C@@H]3COP(=O)(O)O[C@H]4[C@H](n5cnc6c(N)ncnc65)CO[C@@H]4COP(=O)(O)O[C@H]3[C@H]2F)c(=O)[nH]1 [Compound 24, (1S,6R,8R,9R,10R,15R,18R)-8-(2-amino-6-oxo-6,9-dihydro-1H-purin-9-yl)-18-(6-amino-9H-purin-9-yl)-9-fluoro-3,12-dihydroxy-2,4,7,11,13,16-hexaoxa-3λ^5,12λ^5-diphosphatricyclo[13.3.0.0^6,10]octadecane-3,12-dione]	8.5
Nc1ncnc2c1ncn2[C@@H]1CO[C@@H]2COP(=O)(O)O[C@H]3[C@@H](F)[C@H](n4cnc5c(N)ncnc54)O[C@@H]3COP(=O)(O)O[C@@H]12 [Compound 28, (1S,6R,8R,9R,10R,15R,18R)-8,18-bis(6-amino-9H-purin-9-yl)-9-fluoro-3,12-dihydroxy-2,4,7,11,13,16-hexaoxa-3λ^5,12λ^5-diphosphatricyclo[13.3.0.0^6,10]octadecane-3,12-dione]	5.6
Nc1ncnc2c1ncn2[C@@H]1CC[C@@H]2COP(=O)(O)O[C@H]3[C@@H](F)[C@H](n4cnc5c(N)ncnc54)O[C@@H]3COP(=O)(O)O[C@H]21 [Compound 34, (1R,6R,8R,9R,10R,15R,18R)-8,18-bis(6-amino-9H-purin-9-yl)-9-fluoro-3,12-dihydroxy-2,4,7,11,13-pentaoxa-3λ^5,12λ^5-diphosphatricyclo[13.3.0.0^6,10]octadecane-3,12-dione]	1.6
Nc1ncnc2c1ncn2[C@@H]1CO[C@@H]2COP(=O)(O)O[C@H]3C[C@H](n4cnc5c(N)ncnc54)O[C@@H]3COP(=O)(O)O[C@@H]12 [Compound 50, (1S,6R,8R,10S,15R,18R)-8,18-bis(6-amino-9H-purin-9-yl)-3,12-dihydroxy-2,4,7,11,13,16-hexaoxa-3λ^5,12λ^5-diphosphatricyclo[13.3.0.0^6,10]octadecane-3,12-dione]	1.8
Nc1nc2c(ncn2[C@@H]2CO[C@@H]3COP(=O)(O)O[C@H]4[C@@H](F)[C@H](n5cnc6c(N)ncnc65)O[C@@H]4COP(=O)(O)O[C@@H]23)c(=O)[nH]1 [Compound 51, (1S,6R,8R,9R,10R,15R,18R)-18-(2-amino-6-oxo-6,9-dihydro-1H-purin-9-yl)-8-(6-amino-9H-purin-9-yl)-9-fluoro-3,12-dihydroxy-2,4,7,11,13,16-hexaoxa-3λ^5,12λ^5-diphosphatricyclo[13.3.0.0^6,10]octadecane-3,12-dione]	6.8
Nc1nc2c(ncn2[C@@H]2CO[C@@H]3COP(=O)(O)O[C@H]4[C@H](n5cnc6c(N)ncnc65)CO[C@@H]4COP(=O)(O)O[C@@H]23)c(=O)[nH]1 [Compound 52, (1S,6R,9R,10S,15R,18R)-9-(2-amino-6-oxo-6,9-dihydro-1H-purin-9-yl)-18-(6-amino-9H-purin-9-yl)-3,12-dihydroxy-2,4,7,11,13,16-hexaoxa-3λ^5,12λ^5-diphosphatricyclo[13.3.0.0^6,10]octadecane-3,12-dione]	2.4
Nc1nc2c(ncn2[C@@H]2CO[C@@H]3COP(=O)(O)O[C@H]4C[C@H](n5cnc6c(N)ncnc65)O[C@@H]4COP(=O)(O)O[C@@H]23)c(=O)[nH]1 [Compound 53, (1S,6R,8R,10S,15R,18R)-18-(2-amino-6-oxo-6,9-dihydro-1H-purin-9-yl)-8-(6-amino-9H-purin-9-yl)-3,12-dihydroxy-2,4,7,11,13,16-hexaoxa-3λ^5,12λ^5-diphosphatricyclo[13.3.0.0^6,10]octadecane-3,12-dione]	2.9
Nc1ncnc2c1ncn2[C@@H]1CO[C@@H]2COP(=O)(S)O[C@H]3[C@@H](F)[C@H](n4cnc5c(N)ncnc54)O[C@@H]3COP(=O)(S)O[C@@H]12 (stereo partly drawn) [Compound 54, (1S,6R,8R,9R,10R,15R,18R)-8,18-bis(6-amino-9H-purin-9-yl)-9-fluoro-3,12-disulfanyl-2,4,7,11,13,16-hexaoxa-3λ^5,12λ^5-diphosphatricyclo[13.3.0.0^6,10]octadecane-3,12-dione]	8.5
